Test results: ChEMBL document CHEMBL4359811, “Development of Potent and Selective Pyrazolopyrimidine IRAK4 Inhibitors” (J Med Chem, 2019)
Values after ≈ are worked out from the molar mass of the structure shown.

How the values were obtained:
[1] = Half-life in mouse at 10 mg/kg, po; type: ADME, organism-based; conditions: in vivo
[2] = Volume of distribution at steady state in rat at 1 mg/kg, iv; type: ADME, organism-based; conditions: in vivo, read-out: Vdss
[3] = system: Mus musculus; test: In vivo inhibition of IRAK4 in CpG ODN 1826 induced C57BL/6 mouse assessed as blockade of TLR9 signalling by measuring IL-6 levels at 3 mg/kg, po treated 1 hr prior to CpG ODN 1826 stimulation and measured after 1 hr by MSD assay; type: functional; set-up: scale not given: the % may be the effect or the level left
[4] = Cmax in mouse at 10 mg/kg, po; type: ADME, organism-based; set-up: dose 10 mg/kg, route oral; conditions: in vivo
[5] = Cmax in rat at 1 mg/kg, po; type: ADME, organism-based; set-up: dose 1 mg/kg, route oral; conditions: in vivo
[6] = Cmax in dog at 1 mg/kg, po; type: ADME, organism-based, Canis lupus familiaris; set-up: dose 1 mg/kg, route oral; conditions: in vivo
[7] = Kinetic aqueous solubility of the compound in PBS buffer at pH 7.4 incubated for 24 hrs under shaking condition by LC-CLND assay; type: physicochemical; conditions: PBS buffer, pH 7.4; read-out: Kinetic_solubility
[8] = AUC (infinity) in dog at 1 mg/kg, po; type: ADME, organism-based, Canis lupus familiaris; set-up: dose 1 mg/kg, time infinity, route oral; conditions: in vivo
[9] = AUC (infinity) in mouse at 300 mg/kg, po administered as suspension in MCT; type: ADME, organism-based; set-up: dose 300 mg/kg, route oral, time infinity; conditions: in vivo
[10] = AUC (infinity) in mouse at 30 mg/kg, po; type: ADME, organism-based; set-up: dose 30 mg/kg, time infinity, route oral; conditions: in vivo
[11] = Oral bioavailability in rat at 1 mg/kg; type: ADME, organism-based; conditions: in vivo
[12] = Volume of distribution at steady state in monkey at 1 mg/kg, iv; type: ADME, organism-based, Macaca mulatta; conditions: rhesus monkey, in vivo, read-out: Vdss
[13] = Half-life in mouse at 5 mg/kg, po; type: ADME, organism-based; conditions: in vivo
[14] = Plasma clearance in rat at 1 mg/kg, iv; type: ADME, organism-based
[15] = system: Mus musculus; test: In vivo inhibition of IRAK4 in CpG ODN 1826 induced C57BL/6 mouse assessed as blockade of TLR9 signalling by measuring IL-6 levels at 100 mg/kg, po treated 1 hr prior to CpG ODN 1826 stimulation and measured after 1 hr by MSD assay; type: functional; set-up: scale not given: the % may be the effect or the level left
[16] = Plasma clearance in dog at 0.3 mg/kg, iv; type: ADME, organism-based, Canis lupus familiaris
[17] = system: Mus musculus; test: In vivo inhibition of IRAK4 in CpG ODN 1826 induced C57BL/6 mouse assessed as blockade of TLR9 signalling by measuring TNFalpha levels at 1 mg/kg, po treated 1 hr prior to CpG ODN 1826 stimulation and measured after 1 hr by MSD assay; type: functional; set-up: scale not given: the % may be the effect or the level left
[18] = system: Mus musculus; test: In vivo inhibition of IRAK4 in CpG ODN 1826 induced C57BL/6 mouse assessed as blockade of TLR9 signalling by measuring IL-6 levels at 10 mg/kg, po treated 1 hr prior to CpG ODN 1826 stimulation and measured after 1 hr by MSD assay; type: functional; set-up: scale not given: the % may be the effect or the level left
[19] = Cmax in mouse at 300 mg/kg, po administered as suspension in 10% captisol; type: ADME, organism-based; set-up: dose 300 mg/kg, route oral; conditions: in vivo
[20] = Protein binding in human plasma at 5 uM incubated for 4 hrs by LC-MS/MS analysis; type: ADME, cell-free; conditions: read-out: PPB (converted)
[21] = Oral bioavailability in mouse at 300 mg/kg administered as suspension in MCT; type: ADME, organism-based; conditions: in vivo
[22] = AUC (infinity) in monkey at 1 mg/kg, po; type: ADME, organism-based, Macaca mulatta; set-up: dose 1 mg/kg, time infinity, route oral; conditions: rhesus monkey, in vivo
[23] = Half-life in mouse at 100 mg/kg, po administered as suspension in 10% captisol; type: ADME, organism-based; conditions: in vivo
[24] = system: Mus musculus; test: In vivo inhibition of IRAK4 in CpG ODN 1826 induced C57BL/6 mouse assessed as blockade of TLR9 signalling by measuring TNFalpha levels at 100 mg/kg, po treated 1 hr prior to CpG ODN 1826 stimulation and measured after 1 hr by MSD assay; type: functional; set-up: scale not given: the % may be the effect or the level left
[25] = Oral bioavailability in mouse at 100 mg/kg administered as suspension in 10% captisol; type: ADME, organism-based; conditions: in vivo
[26] = Oral bioavailability in dog at 1 mg/kg; type: ADME, organism-based, Canis lupus familiaris; conditions: in vivo
[27] = Half-life in mouse at 300 mg/kg, po administered as suspension in MCT; type: ADME, organism-based; conditions: in vivo
[28] = Oral bioavailability in mouse at 300 mg/kg administered as suspension in 10% captisol; type: ADME, organism-based; conditions: in vivo
[29] = Cmax in mouse at 100 mg/kg, po administered as suspension in MCT; type: ADME, organism-based; set-up: dose 100 mg/kg, route oral; conditions: in vivo
[30] = Plasma clearance in monkey at 1 mg/kg, iv; type: ADME, organism-based, Macaca mulatta; conditions: rhesus monkey
[31] = Protein binding in mouse plasma at 5 uM incubated for 4 hrs by LC-MS/MS analysis; type: ADME, cell-free; conditions: read-out: PPB (converted)
[32] = Cmax in mouse at 300 mg/kg, po administered as suspension in MCT; type: ADME, organism-based; set-up: dose 300 mg/kg, route oral; conditions: in vivo
[33] = system: Mus musculus; test: In vivo inhibition of IRAK4 in CpG ODN 1826 induced C57BL/6 mouse assessed as blockade of TLR9 signalling by measuring TNFalpha levels at 3 mg/kg, po treated 1 hr prior to CpG ODN 1826 stimulation and measured after 1 hr by MSD assay; type: functional; set-up: scale not given: the % may be the effect or the level left
[34] = Volume of distribution at steady state in dog at 0.3 mg/kg, iv; type: ADME, organism-based, Canis lupus familiaris; conditions: in vivo, read-out: Vdss
[35] = AUC (infinity) in mouse at 100 mg/kg, po administered as suspension in MCT; type: ADME, organism-based; set-up: dose 100 mg/kg, time infinity, route oral; conditions: in vivo
[36] = Volume of distribution at steady state in mouse at 1 mg/kg, iv; type: ADME, organism-based; conditions: in vivo, read-out: Vdss
[37] = AUC (infinity) in mouse at 10 mg/kg, po; type: ADME, organism-based; set-up: dose 10 mg/kg, route oral, time infinity; conditions: in vivo
[38] = system: Mus musculus; test: In vivo inhibition of IRAK4 in CpG ODN 1826 induced C57BL/6 mouse assessed as blockade of TLR9 signalling by measuring IL-6 levels at 30 mg/kg, po treated 1 hr prior to CpG ODN 1826 stimulation and measured after 1 hr by MSD assay; type: functional; set-up: scale not given: the % may be the effect or the level left
[39] = Cmax in monkey at 1 mg/kg, po; type: ADME, organism-based, Macaca mulatta; set-up: dose 1 mg/kg, route oral; conditions: rhesus monkey, in vivo
[40] = system: Mus musculus; test: In vivo inhibition of IRAK4 in CpG ODN 1826 induced C57BL/6 mouse assessed as blockade of TLR9 signalling by measuring TNFalpha levels at 30 mg/kg, po treated 1 hr prior to CpG ODN 1826 stimulation and measured after 1 hr by MSD assay; type: functional; set-up: scale not given: the % may be the effect or the level left
[41] = Protein binding in dog plasma at 5 uM incubated for 4 hrs by LC-MS/MS analysis; type: ADME, cell-free, Canis lupus familiaris; conditions: read-out: PPB (converted)
[42] = Protein binding in rat plasma at 5 uM incubated for 4 hrs by LC-MS/MS analysis; type: ADME, cell-free; conditions: read-out: PPB (converted)
[43] = Half-life in dog at 1 mg/kg, po; type: ADME, organism-based, Canis lupus familiaris; conditions: in vivo
[44] = Cmax in mouse at 5 mg/kg, po; type: ADME, organism-based; set-up: dose 5 mg/kg, route oral; conditions: in vivo, read-out: Cmax
[45] = Half-life in mouse at 30 mg/kg, po; type: ADME, organism-based; conditions: in vivo
[46] = AUC (infinity) in mouse at 5 mg/kg, po; type: ADME, organism-based; set-up: dose 5 mg/kg, route oral, time infinity; conditions: in vivo
[47] = AUC (infinity) in mouse at 100 mg/kg, po administered as suspension in 10% captisol; type: ADME, organism-based; set-up: dose 100 mg/kg, route oral, time infinity; conditions: in vivo
[48] = Oral bioavailability in monkey at 1 mg/kg; type: ADME, organism-based, Macaca mulatta; conditions: rhesus monkey, in vivo
[49] = Oral bioavailability in mouse at 100 mg/kg administered as suspension in MCT; type: ADME, organism-based; conditions: in vivo
[50] = Oral bioavailability in mouse at 5 mg/kg; type: ADME, organism-based; conditions: in vivo

With `C[C@]1(CO)Cc2cc(NC(=O)c3cnn4cccnc34)c(N3CCOCC3)cc2O1` as the compound, how does the half-life [1] read?
Its half-life is 1.3 h.

And the Vd [2]?
Its Vd is 2.3 L/kg.

And the Activity [3]?
The Activity was -27%.

And the Cmax [4]?
Its Cmax is 5.4 µM.

And the Cmax [5]?
Its Cmax is 0.4 µM.

And the Cmax [6]?
The Cmax was 0.2 µM.

And the solubility kinetic at 24 h [7]?
The solubility kinetic at 24 h was 10 µM (≈ 4.09 µg/mL).

And the AUC(0-inf) [8]?
The AUC(0-inf) was 1.4 µM·h.

And the AUC(0-inf) [9]?
Its AUC(0-inf) is 63 µM·h.

And the AUC(0-inf) [10]?
Its AUC(0-inf) is 17 µM·h.

What about the bioavailability [11] of the same compound?
The bioavailability was 42%.

And the Vd [12]?
The Vd was 4.4 L/kg.

What about the half-life [13] of the same compound?
Its half-life is 0.5 h.

What about the clearance [14] of the same compound?
Its clearance is 6.6 mL/min/kg.

What about the Activity [15] of the same compound?
Its Activity is -91%.

What about the clearance [16] of the same compound?
The clearance was 9.3 mL/min/kg.

What about the Activity [17] of the same compound?
The Activity was 3%.

What about the Activity [18] of the same compound?
The Activity was -69%.

What about the Cmax [19] of the same compound?
The Cmax was 14 µM.

And the fraction unbound at 4 h, 5 µM [20]?
Its fraction unbound at 4 h, 5 µM is 0.44.

And the bioavailability [21]?
The bioavailability was 22%.

What about the AUC(0-inf) [22] of the same compound?
Its AUC(0-inf) is 3.3 µM·h.

What about the half-life [23] of the same compound?
The half-life was 3.3 h.

And the Activity [24]?
Its Activity is -89%.

What about the bioavailability [25] of the same compound?
The bioavailability was 49%.

What about the bioavailability [26] of the same compound?
Its bioavailability is 30%.

And the half-life [27]?
The half-life was 23.2 h.

What about the bioavailability [28] of the same compound?
The bioavailability was 33%.

What about the Cmax [29] of the same compound?
Its Cmax is 4.8 µM.

And the clearance [30]?
Its clearance is 11 mL/min/kg.

And the fraction unbound at 4 h, 5 µM [31]?
The fraction unbound at 4 h, 5 µM was 0.14.

What about the Cmax [32] of the same compound?
Its Cmax is 10 µM.

What about the Activity [33] of the same compound?
The Activity was -18%.

And the Vd [34]?
Its Vd is 8 L/kg.

What about the AUC(0-inf) [35] of the same compound?
Its AUC(0-inf) is 15.1 µM·h.

What about the Vd [36] of the same compound?
Its Vd is 1.1 L/kg.

What about the AUC(0-inf) [37] of the same compound?
Its AUC(0-inf) is 10 µM·h.

What about the Activity [38] of the same compound?
Its Activity is -78%.

What about the Cmax [39] of the same compound?
The Cmax was 0.3 µM.

What about the Activity [40] of the same compound?
Its Activity is -79%.

What about the fraction unbound at 4 h, 5 µM [41] of the same compound?
Its fraction unbound at 4 h, 5 µM is 0.34.

What about the fraction unbound at 4 h, 5 µM [42] of the same compound?
The fraction unbound at 4 h, 5 µM was 0.21.

And the half-life [43]?
Its half-life is 1.7 h.

And the Cmax [44]?
Its Cmax is 2.1 µM.

And the half-life [45]?
Its half-life is 1.3 h.

And the AUC(0-inf) [46]?
Its AUC(0-inf) is 2.3 µM·h.

What about the AUC(0-inf) [47] of the same compound?
The AUC(0-inf) was 98 µM·h.

What about the bioavailability [48] of the same compound?
The bioavailability was 85%.

What about the bioavailability [49] of the same compound?
The bioavailability was 19%.

And the bioavailability [50]?
The bioavailability was 59%.
